In a compilation of properties of binary mixtures (doi:10.1021/acs.jced.5b00753):

Assay: xn = mol fraction of the nth substance listed
Settings: 101 kPa

CN(C)C=O + CC[n+]1ccn(C)c1.F[B-](F)(F)F
x1 = 1
Settings	viscosity [mPa·s]
303.15 K	0.744
323.15 K	0.6

CC(=O)N(C)C + CC[n+]1ccn(C)c1.F[B-](F)(F)F
x1 = 1
Settings	viscosity [mPa·s]
303.15 K	0.862
313.15 K	0.758
323.15 K	0.673
333.15 K	0.602

CC[n+]1ccn(C)c1.F[B-](F)(F)F + CN(C)C=O
viscosity [mPa·s]
Settings	x2 = 0	x2 = 0.1016	x2 = 0.2016	x2 = 0.2994	x2 = 0.3987	x2 = 0.5005	x2 = 0.6004	x2 = 0.7	x2 = 0.7997	x2 = 0.8999
303.15 K	28	21.61	–	12.55	9.33	6.703	4.72	3.214	2.114	1.305
313.15 K	–	16.03	12.53	9.74	–	–	3.867	2.689	–	1.144
323.15 K	–	12.29	9.8	–	5.935	–	–	2.293	1.567	–
333.15 K	12.08	9.72	7.83	6.291	4.93	3.744	2.775	1.993	1.387	0.899

CC[n+]1ccn(C)c1.F[B-](F)(F)F + CS(C)=O
viscosity [mPa·s]
Settings	x2 = 0	x2 = 0.1001	x2 = 0.2007	x2 = 0.2996	x2 = 0.4	x2 = 0.4996	x2 = 0.6002	x2 = 0.7002	x2 = 0.7996	x2 = 0.9002
303.15 K	28	24.39	–	–	14.08	11.13	–	6.249	–	2.928
313.15 K	20.41	17.83	15.25	–	10.59	8.46	6.575	4.936	3.515	2.385
323.15 K	15.35	13.54	11.62	9.91	–	6.667	5.296	3.971	2.893	–
333.15 K	12.08	10.64	9.18	7.87	6.571	5.382	4.335	3.294	2.438	–

CS(C)=O + CC[n+]1ccn(C)c1.F[B-](F)(F)F
x1 = 1
Settings	viscosity [mPa·s]
303.15 K	1.784
313.15 K	1.498
323.15 K	1.27
333.15 K	1.095

CC[n+]1ccn(C)c1.F[B-](F)(F)F + CC(=O)N(C)C
viscosity [mPa·s]
Settings	x2 = 0	x2 = 0.0996	x2 = 0.1998	x2 = 0.2995	x2 = 0.3989	x2 = 0.5005	x2 = 0.6	x2 = 0.6996	x2 = 0.8001	x2 = 0.8994
303.15 K	–	22.75	–	13.99	10.62	7.83	–	–	–	1.549
313.15 K	20.41	16.86	13.59	10.65	8.23	–	–	3.147	2.092	1.328
323.15 K	–	12.8	10.45	–	6.555	4.982	3.69	2.638	1.79	1.154
333.15 K	12.08	10.09	8.31	–	–	4.122	3.115	2.252	1.563	1.029
